According to patent US10662205B2, “Cyclic boronic acid ester derivatives and therapeutic uses thereof” (priority 2014, dated 2020):
Where two headings read alike, the source gives them in different places.

Tests used:
[1] = system: KP1005 (CTX-M-14); test: Aztreonam potentiation (MPC@4); type: cell-based; conditions: aztreonam 4 μg/mL
[2] = system: KP1009 (CTX-M-15); test: Aztreonam potentiation (MPC@4); type: cell-based; conditions: aztreonam 4 μg/mL
[3] = system: ec308 (SHV-5); test: Aztreonam potentiation (MPC@4); type: cell-based; conditions: aztreonam 4 μg/mL
[4] = system: KP1010 (SHV-12); test: Aztreonam potentiation (MPC@4); type: cell-based; conditions: aztreonam 4 μg/mL
[5] = system: ec302 (TEM-10); test: Aztreonam potentiation (MPC@4); type: cell-based; conditions: aztreonam 4 μg/mL
[6] = system: KP1004 (KPC-2); test: Aztreonam potentiation (MPC@4); type: cell-based; conditions: aztreonam 4 μg/mL
[7] = system: ECL1002; test: Aztreonam potentiation (MPC@4); type: cell-based; conditions: aztreonam 4 μg/mL
[8] = system: EC1010 (CMY-6); test: Aztreonam potentiation (MPC@4); type: cell-based; conditions: aztreonam 4 μg/mL
[9] = system: KP1005 (CTX-M-14); test: Tigemonam potentiation (MPC@4); type: cell-based; conditions: tigemonam 4 μg/mL
[10] = system: KP1009 (CTX-M-15); test: Tigemonam potentiation (MPC@4); type: cell-based
[11] = system: ec308 (SHV-5); test: Tigemonam potentiation (MPC@4); type: cell-based; conditions: tigemonam 4 μg/mL
[12] = system: KP1010 (SHV-12); test: Tigemonam potentiation (MPC@4); type: cell-based
[13] = system: ec302 (TEM-10); test: Tigemonam potentiation (MPC@4); type: cell-based; conditions: tigemonam 4 μg/mL
[14] = system: ECL1002; test: Tigemonam potentiation (MPC@4); type: cell-based; conditions: tigemonam 4 μg/mL
[15] = system: EC1010 (CMY-6); test: Tigemonam potentiation (MPC@4); type: cell-based; conditions: tigemonam 4 μg/mL; EC1010, CMY-6
[16] = target: CTX-M-14 (Escherichia coli, UniProt Q9L5C7); test: Inhibition of nitrocefin cleavage by purified enzyme (Ki); type: biochemical; conditions: nitrocefin reporter substrate; 10 min preincubation; read-out: Ki CTX-M-14, NCF
Procedure: (§1) Ki values of inhibition of purified class A, C and D enzymes were determined spectrophotometrically using nitrocefin as reporter substrate. Purified enzymes were mixed with various concentrations of inhibitors in reaction buffer and incubated for 10 min at room temperature. Nitrocefin was added and substrate cleavage profiles were recorded at 490 nm every 10 sec for 10 min.

[17] = target: SHV-12 (Klebsiella pneumoniae, UniProt P0AD64, E235K/G234S/L31Q); test: as above; type: biochemical
Procedure: as §1

[18] = target: CMY-2 (Klebsiella pneumoniae, UniProt Q48434); test: as above; type: biochemical; conditions: nitrocefin reporter substrate; 10 min preincubation; read-out: Ki CMY-2, NCF
Procedure: as §1, with “min. These experiments confirmed that the described compounds are inhibitors with a broad-spectrum of activity towards various β-lactamases.” for “min.”

[19] = target: KPC-2 (Klebsiella pneumoniae, UniProt Q9F663); test: as above; type: biochemical; conditions: nitrocefin reporter substrate; 10 min preincubation; read-out: Ki KPC-2, NCF
Procedure: as §1, with “min. These experiments confirmed that the described compounds are inhibitors with a broad-spectrum of activity towards various β-lactamases.” for “min.”

[20] = target: OXA-48 (Klebsiella pneumoniae, UniProt Q6XEC0); test: as above; type: biochemical; conditions: nitrocefin reporter substrate; 10 min preincubation; read-out: Ki OXA-48, NCF
Procedure: as §1, with “min. These experiments confirmed that the described compounds are inhibitors with a broad-spectrum of activity towards various β-lactamases.” for “min.”

[21] = target: P99 (Enterobacter cloacae, UniProt P05364); test: biochemical; conditions: nitrocefin reporter substrate; 10 min preincubation; read-out: Ki P99, NCF
Procedure: as §1

[22] = system: PAM1032/KPC-2; test: Biapenem potentiation MPC64, efflux proficient strain; type: cell-based, Pseudomonas aeruginosa; design: unit not given here; conditions: efflux proficient (MexAB-OprM overexpressed); decrease biapenem MIC 64-fold, 32 to 0.5 μg/ml
Procedure: (§2) Efflux of BLIs from Pseudomonas aeruginosa by the MexAB-OprM efflux pump was also evaluated. The plasmid expressing the gene encoding KPC-2 was introduced into two strains of P. aeruginosa, PAM1032 and PAM1154 that overexpressed or lacked MexAB-OprM, respectively. Due to expression of KPC-2 both strains became resistant to biapenem. […] Potency of BLIs to potentiate biapenem in these strains was determined. […] The ratio of MPC64 values for each BLI in PAM1032/KPC-2 (efflux proficient) and PAM1154/KPC-2 (efflux deficient) was determined to generate the Efflux Index (EI).

[23] = system: PAM1154/KPC-2; test: Biapenem potentiation MPC64, efflux deficient strain; type: cell-based, Pseudomonas aeruginosa; design: unit not given here; conditions: efflux deficient (lacks MexAB-OprM); decrease biapenem MIC 64-fold, 32 to 0.5 μg/ml
Procedure: as §2

[24] = Oral pharmacokinetics; type: in vivo; conditions: rat, plasma, rats, n=3, read-out: Range of % Oral Bioavailability
Procedure: Several compounds were tested for their oral pharmacokinetics. Rats (n=3 per compound) were administered a single oral dose. Oral doses were administered as a bolus. Plasma (˜0.3 mL) samples were collected from each rat at designated time points up to 24 hours. Blood samples were centrifuged within 5 min of collection at 12000 g for 5 min to obtain plasma. The plasma samples were stored at −80° C. until analyzed. Data were analyzed using WinNonlin.

[25] = system: KP1004 (KPC-2); test: Biapenem potentiation (MPC@1); conditions: biapenem 1 μg/mL
[26] = system: KP1086 (OXA-48); test: Biapenem potentiation (MPC@1); conditions: biapenem 1 μg/mL

Chain of CMY-2 (Q48434 21-381, species assumed): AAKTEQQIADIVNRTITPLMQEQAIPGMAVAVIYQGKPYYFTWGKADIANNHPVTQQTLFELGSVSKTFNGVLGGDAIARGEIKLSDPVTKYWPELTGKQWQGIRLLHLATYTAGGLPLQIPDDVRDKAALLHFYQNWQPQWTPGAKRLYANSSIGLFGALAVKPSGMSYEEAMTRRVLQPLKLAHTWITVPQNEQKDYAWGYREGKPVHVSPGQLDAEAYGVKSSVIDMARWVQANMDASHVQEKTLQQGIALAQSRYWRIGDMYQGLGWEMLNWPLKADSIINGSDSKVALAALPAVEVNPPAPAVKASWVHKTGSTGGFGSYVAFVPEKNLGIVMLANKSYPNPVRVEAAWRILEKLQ
Chain of P99 (P05364 21-381): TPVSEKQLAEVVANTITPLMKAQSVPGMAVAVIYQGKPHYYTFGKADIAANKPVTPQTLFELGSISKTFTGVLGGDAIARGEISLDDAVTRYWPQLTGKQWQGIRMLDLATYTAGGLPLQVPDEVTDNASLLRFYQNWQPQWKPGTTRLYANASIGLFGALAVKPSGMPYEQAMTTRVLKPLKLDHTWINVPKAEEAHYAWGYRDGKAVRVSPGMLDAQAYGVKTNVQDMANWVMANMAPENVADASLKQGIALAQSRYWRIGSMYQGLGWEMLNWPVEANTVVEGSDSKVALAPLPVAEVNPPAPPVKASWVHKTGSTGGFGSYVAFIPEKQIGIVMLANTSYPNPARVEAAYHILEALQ
Chain of KPC-2 (Q9F663 25-293, looked up, species assumed): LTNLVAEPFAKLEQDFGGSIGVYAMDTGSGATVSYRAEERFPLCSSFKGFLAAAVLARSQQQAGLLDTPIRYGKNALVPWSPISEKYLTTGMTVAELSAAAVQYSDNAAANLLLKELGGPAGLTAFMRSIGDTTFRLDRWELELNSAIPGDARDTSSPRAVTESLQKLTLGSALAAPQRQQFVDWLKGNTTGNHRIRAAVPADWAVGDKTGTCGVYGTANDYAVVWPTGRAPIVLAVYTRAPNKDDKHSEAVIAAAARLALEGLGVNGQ
Chain of CTX-M-14 (Q9L5C7 29-291): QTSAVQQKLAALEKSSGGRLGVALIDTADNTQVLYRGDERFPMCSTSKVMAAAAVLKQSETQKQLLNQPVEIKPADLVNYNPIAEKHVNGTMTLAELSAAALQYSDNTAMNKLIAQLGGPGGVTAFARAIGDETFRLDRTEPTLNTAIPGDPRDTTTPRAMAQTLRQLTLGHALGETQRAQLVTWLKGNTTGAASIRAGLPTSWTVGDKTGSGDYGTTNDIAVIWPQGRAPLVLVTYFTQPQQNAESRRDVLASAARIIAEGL
Chain of SHV-12 (P0AD64 22-286 L31Q/G234S/E235K): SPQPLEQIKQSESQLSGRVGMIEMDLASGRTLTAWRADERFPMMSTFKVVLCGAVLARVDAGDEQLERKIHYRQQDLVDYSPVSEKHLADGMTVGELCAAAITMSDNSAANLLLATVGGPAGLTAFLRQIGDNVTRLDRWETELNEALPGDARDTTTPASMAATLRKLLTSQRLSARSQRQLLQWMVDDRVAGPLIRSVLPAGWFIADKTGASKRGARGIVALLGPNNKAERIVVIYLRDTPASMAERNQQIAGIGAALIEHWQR
Chain of OXA-48 (Q6XEC0 23-265, looked up, species assumed): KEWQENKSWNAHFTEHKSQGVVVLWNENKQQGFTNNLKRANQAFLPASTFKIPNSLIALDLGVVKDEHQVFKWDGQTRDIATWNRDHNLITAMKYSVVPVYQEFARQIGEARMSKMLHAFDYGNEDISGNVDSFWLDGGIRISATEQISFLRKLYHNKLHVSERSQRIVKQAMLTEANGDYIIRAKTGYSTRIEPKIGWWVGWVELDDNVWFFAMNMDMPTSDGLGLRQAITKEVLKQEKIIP

| Compound | MPC@4 aztreonam potentiation [1] | MPC@4 aztreonam potentiation [2] | MPC@4 aztreonam potentiation [3] | MPC@4 aztreonam potentiation [4] | MPC@4 aztreonam potentiation [6] | MPC@4 aztreonam potentiation [7] | MPC@4 aztreonam potentiation [8] | MPC@4 tigemonam potentiation [9] | MPC@4 tigemonam potentiation [10] | MPC@4 tigemonam potentiation [11] | MPC@4 tigemonam potentiation [12] | MPC@4 tigemonam potentiation [13] | MPC@4 tigemonam potentiation [14] | MPC@4 tigemonam potentiation [15] | Ki [16] [nM] | Ki [17] [nM] | Ki [19] [nM] | Ki [20] [nM] | Ki [21] [nM] | PAM1032/KPC-2 Biapenem MPC64 [22] | also measured |
| --- | --- | --- | --- | --- | --- | --- | --- | --- | --- | --- | --- | --- | --- | --- | --- | --- | --- | --- | --- | --- | --- |
| CSCC(=O)N[C@H]1CC=C[C@@H]2CC(=O)OB1O2 [Compound 1, 2-(METHYLTHIO)-N-((2R,6S)-8-OXO-9,10-DIOXA-1-BORABICYCLO[4.3.1]DEC-4-EN-2-YL)ACETAMIDE] | X (X = MPC@4 ≤ 5 μg/mL) | X (X = MPC@4 ≤ 5 μg/mL) | X (X = MPC@4 ≤ 5 μg/mL) | X (X = MPC@4 ≤ 5 μg/mL) | X (X = MPC@4 ≤ 5 μg/mL) | X (X = MPC@4 ≤ 5 μg/mL) | X (X = MPC@4 ≤ 5 μg/mL) | X (X = MPC@4 ≤ 5 μg/mL) | X (key: X = MPC@4 ≤ 5 μg/mL; Y = 5 μg/mL < MPC@4 ≤ 20 μg/mL; Z = MPC@4 > 20 μg/mL) | X (X = MPC@4 ≤ 5 μg/mL) | X (key: X = MPC@4 ≤ 5 μg/mL; Y = 5 μg/mL < MPC@4 ≤ 20 μg/mL; Z = MPC@4 > 20 μg/mL) | Y (Y = 5 μg/mL < MPC@4 ≤ 20 μg/mL) | X (X = MPC@4 ≤ 5 μg/mL) | X (X = MPC@4 ≤ 5 μg/mL) | < 100 | < 100 | 100 to 1000 | < 100 | < 100 | 80 | MPC@4 aztreonam potentiation [5]: X (X = MPC@4 ≤ 5 μg/mL); Ki [18]: < 100 nM; PAM1154/KPC-2 Biapenem MPC64 [23]: 5; bioavailability ([24]; single oral dose 30 mg/kg): 44 to 61%; bioavailability ([24]; single oral dose 100 mg/kg): 63 to 74%; bioavailability ([24]; single oral dose 300 mg/kg): 61 to 77%; MPC@1 biapenem potentiation [25]: X (X = MPC@1 ≤ 5 μg/mL); MPC@1 biapenem potentiation [26]: Z (Z = MPC@1 > 20 μg/mL) |
| O=C(CSC(F)F)N[C@H]1CC=C[C@@H]2CC(=O)OB1O2 [Compound 3, 2-(DIFLUOROMETHYLTHIO)-N-((2R,6S)-8-OXO-9,10-DIOXA-1-BORABICYCLO[4.3.1]DEC-4-EN-2-YL)ACETAMIDE] | X (X = MPC@4 ≤ 5 μg/mL) | X (X = MPC@4 ≤ 5 μg/mL) | X (X = MPC@4 ≤ 5 μg/mL) | X (X = MPC@4 ≤ 5 μg/mL) | X (X = MPC@4 ≤ 5 μg/mL) | X (X = MPC@4 ≤ 5 μg/mL) | X (X = MPC@4 ≤ 5 μg/mL) | X (X = MPC@4 ≤ 5 μg/mL) | X (key: X = MPC@4 ≤ 5 μg/mL; Y = 5 μg/mL < MPC@4 ≤ 20 μg/mL; Z = MPC@4 > 20 μg/mL) | X (X = MPC@4 ≤ 5 μg/mL) | X (key: X = MPC@4 ≤ 5 μg/mL; Y = 5 μg/mL < MPC@4 ≤ 20 μg/mL; Z = MPC@4 > 20 μg/mL) | Y (Y = 5 μg/mL < MPC@4 ≤ 20 μg/mL) | X (X = MPC@4 ≤ 5 μg/mL) | X (X = MPC@4 ≤ 5 μg/mL) | < 100 | < 100 | 100 to 1000 | < 100 | < 100 | >80 | MPC@4 aztreonam potentiation [5]: X (X = MPC@4 ≤ 5 μg/mL); PAM1154/KPC-2 Biapenem MPC64 [23]: 5; bioavailability ([24]; single oral dose 30 mg/kg): 28 to 54%; MPC@1 biapenem potentiation [25]: X (X = MPC@1 ≤ 5 μg/mL); MPC@1 biapenem potentiation [26]: Z (Z = MPC@1 > 20 μg/mL) |
| Cn1nnnc1SCC(=O)N[C@H]1CC=C[C@@H]2CC(=O)OB1O2 [Compound 4, 2-(1-METHYL-1H-TETRAZOL-5-YLTHIO)-N-((2R,6S)-8-OXO-9,10-DIOXA-1-BORABICYCLO[4.3.1]DEC-4-EN-2-YL)ACETAMIDE] | X (X = MPC@4 ≤ 5 μg/mL) | X (X = MPC@4 ≤ 5 μg/mL) | X (X = MPC@4 ≤ 5 μg/mL) | X (X = MPC@4 ≤ 5 μg/mL) | X (X = MPC@4 ≤ 5 μg/mL) | X (X = MPC@4 ≤ 5 μg/mL) | X (X = MPC@4 ≤ 5 μg/mL) | Y (Y = 5 μg/mL < MPC@4 ≤ 20 μg/mL) | X (key: X = MPC@4 ≤ 5 μg/mL; Y = 5 μg/mL < MPC@4 ≤ 20 μg/mL; Z = MPC@4 > 20 μg/mL) | X (X = MPC@4 ≤ 5 μg/mL) | X (key: X = MPC@4 ≤ 5 μg/mL; Y = 5 μg/mL < MPC@4 ≤ 20 μg/mL; Z = MPC@4 > 20 μg/mL) | Y (Y = 5 μg/mL < MPC@4 ≤ 20 μg/mL) | X (X = MPC@4 ≤ 5 μg/mL) | X (X = MPC@4 ≤ 5 μg/mL) | < 100 | < 100 | 100 to 1000 | < 100 | < 100 | >80 | MPC@4 aztreonam potentiation [5]: X (X = MPC@4 ≤ 5 μg/mL); Ki [18]: < 100 nM; PAM1154/KPC-2 Biapenem MPC64 [23]: 10; bioavailability ([24]; single oral dose 50 mg/kg): 3.2 to 4.6%; MPC@1 biapenem potentiation [25]: X (X = MPC@1 ≤ 5 μg/mL); MPC@1 biapenem potentiation [26]: Z (Z = MPC@1 > 20 μg/mL) |
| Cn1cnnc1SCC(=O)N[C@H]1CC=C[C@@H]2CC(=O)OB1O2 [Compound 5, 2-(4-METHYL-4H-1,2,4-TRIAZOL-3-YLTHIO)-N-((2R,6S)-8-OXO-9,10-DIOXA-1-BORABICYCLO[4.3.1]DEC-4-EN-2-YL)ACETAMIDE] | X (X = MPC@4 ≤ 5 μg/mL) | X (X = MPC@4 ≤ 5 μg/mL) | X (X = MPC@4 ≤ 5 μg/mL) | X (X = MPC@4 ≤ 5 μg/mL) | Y (Y = 5 μg/mL < MPC@4 ≤ 20 μg/mL) | X (X = MPC@4 ≤ 5 μg/mL) | X (X = MPC@4 ≤ 5 μg/mL) | X (X = MPC@4 ≤ 5 μg/mL) | X (key: X = MPC@4 ≤ 5 μg/mL; Y = 5 μg/mL < MPC@4 ≤ 20 μg/mL; Z = MPC@4 > 20 μg/mL) | X (X = MPC@4 ≤ 5 μg/mL) | X (key: X = MPC@4 ≤ 5 μg/mL; Y = 5 μg/mL < MPC@4 ≤ 20 μg/mL; Z = MPC@4 > 20 μg/mL) | Z (Z = MPC@4 > 20 μg/mL) | X (X = MPC@4 ≤ 5 μg/mL) | X (X = MPC@4 ≤ 5 μg/mL) | < 100 | < 100 | 100 to 1000 | 100 to 1000 | < 100 | 80 | Ki [18]: < 100 nM; PAM1154/KPC-2 Biapenem MPC64 [23]: 20; bioavailability ([24]; single oral dose 50 mg/kg): 2.5 to 3%; MPC@1 biapenem potentiation [25]: X (X = MPC@1 ≤ 5 μg/mL); MPC@1 biapenem potentiation [26]: Z (Z = MPC@1 > 20 μg/mL) |
